Assay results published in ChEMBL document CHEMBL1146653, “Potent and selective, sulfamide-based human beta 3-adrenergic receptor agonists” (Bioorg Med Chem Lett, 2004).

Key:
[1] = target: T1, Beta-3 adrenergic receptor (Homo sapiens, UniProt P13945); assay: Agonist activity (EC50) was assessed by measuring cAMP levels in CHO cells expressing cloned human Beta-3 adrenergic receptor; assay type: functional, cell-based
Target sequence in this assay (P13945 whole entry): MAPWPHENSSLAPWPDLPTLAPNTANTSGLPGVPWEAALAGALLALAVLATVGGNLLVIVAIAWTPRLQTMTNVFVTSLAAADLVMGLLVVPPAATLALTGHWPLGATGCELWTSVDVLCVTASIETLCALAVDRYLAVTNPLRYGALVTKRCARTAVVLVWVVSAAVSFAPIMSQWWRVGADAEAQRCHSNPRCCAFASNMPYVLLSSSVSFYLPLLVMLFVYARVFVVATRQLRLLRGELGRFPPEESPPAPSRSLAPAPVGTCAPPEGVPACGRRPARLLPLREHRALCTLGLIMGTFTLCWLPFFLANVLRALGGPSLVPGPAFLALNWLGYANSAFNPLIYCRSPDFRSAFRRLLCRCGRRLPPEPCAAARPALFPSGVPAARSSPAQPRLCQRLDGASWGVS

[2] = target: T1, Beta-3 adrenergic receptor; assay: Intrinsic activity (IA) at human Beta-3 adrenergic receptor (represented by the percentage of the maximal response attained by isoproterenol); assay type: functional
Target sequence in this assay (P13945 whole entry, looked up): as the sequence (P13945 whole entry) above

[3] = target: Beta-2 adrenergic receptor (Homo sapiens) (UniProt P07550); assay: Intrinsic activity (IA) human Beta-2 adrenergic receptor (at 30 uM, represent by the percentage of the maximal response attained by isoproterenol); assay type: functional
[4] = target: Beta-1 adrenergic receptor (Homo sapiens) (UniProt P08588); assay: Intrinsic activity (IA) at human Beta-1 adrenergic receptor (at 30 uM, represented by the percentage of the maximal response attained by isoproterenol); assay type: functional
[5] = target: Beta-1 adrenergic receptor (Homo sapiens) (UniProt P08588); assay: Intrinsic activity (IA) of 30 uM compound at human Beta-1 adrenergic receptor represent the percentage of the maximal response attained by isoproterenol

Chain of Beta-1 adrenergic receptor (Homo sapiens) (P08588 whole entry, looked up): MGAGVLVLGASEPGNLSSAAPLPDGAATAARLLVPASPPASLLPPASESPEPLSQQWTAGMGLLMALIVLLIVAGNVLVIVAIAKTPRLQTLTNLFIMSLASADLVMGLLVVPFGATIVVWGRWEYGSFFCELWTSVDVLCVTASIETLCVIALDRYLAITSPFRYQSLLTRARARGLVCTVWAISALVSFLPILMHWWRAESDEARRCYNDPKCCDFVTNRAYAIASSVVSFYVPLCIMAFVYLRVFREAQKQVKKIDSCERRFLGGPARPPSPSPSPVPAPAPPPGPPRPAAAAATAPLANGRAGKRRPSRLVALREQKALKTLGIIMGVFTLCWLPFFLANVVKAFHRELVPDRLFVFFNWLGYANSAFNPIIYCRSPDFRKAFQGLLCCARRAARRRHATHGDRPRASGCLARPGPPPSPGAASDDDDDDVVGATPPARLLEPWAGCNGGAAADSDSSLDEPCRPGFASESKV
Chain of Beta-2 adrenergic receptor (Homo sapiens) (P07550 whole entry, looked up): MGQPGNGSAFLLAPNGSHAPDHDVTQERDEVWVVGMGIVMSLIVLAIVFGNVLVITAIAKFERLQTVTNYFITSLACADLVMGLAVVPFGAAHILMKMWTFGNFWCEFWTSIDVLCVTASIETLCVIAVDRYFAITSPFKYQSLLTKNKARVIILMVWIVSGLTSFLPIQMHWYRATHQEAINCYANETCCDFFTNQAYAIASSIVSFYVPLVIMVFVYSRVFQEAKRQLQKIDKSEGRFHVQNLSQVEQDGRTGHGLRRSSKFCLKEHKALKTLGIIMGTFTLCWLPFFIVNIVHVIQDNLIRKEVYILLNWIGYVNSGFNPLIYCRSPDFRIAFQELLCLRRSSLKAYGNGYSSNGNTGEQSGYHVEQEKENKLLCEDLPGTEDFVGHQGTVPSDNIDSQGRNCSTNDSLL

Structure (SMILES) | EC50 [1] | IA [2] | IA [3] | IA [4] | IA [5]
C[C@@H]1C[C@H](C)CN(S(=O)(=O)Nc2ccc(CCNC[C@H](O)c3cccnc3)cc2)C1 | 24 nM | 95 | 17 | 11 | 
O=S(=O)(Nc1ccc(CCNC[C@H](O)c2cccc(Cl)c2)cc1)N1CCCCC1 | 617 nM | 84 | 5 | 4 | 
CN(C)S(=O)(=O)N(C)c1ccc(CCNC[C@H](O)c2cccc(Cl)c2)cc1 | 9900 nM | 105 | 1 | 2 | 
CN(C1CCCCC1)S(=O)(=O)Nc1ccc(CCNC[C@H](O)c2cccnc2)cc1 | 180 nM | 67 | 16 | 15 | 
CN(C1CCCCC1)S(=O)(=O)Nc1ccc(CCNC[C@H](O)c2cccc(Cl)c2)cc1 | 537 nM | 62 | 5 | 6 | 
C[C@@H]1CN(S(=O)(=O)Nc2ccc(CC(C)(C)NC[C@H](O)c3cccnc3)cc2)C[C@H](C)O1 | 8 nM | 85 | 8 | 10 | 
CC1CCN(S(=O)(=O)Nc2ccc(CC(C)(C)NC[C@H](O)c3cccnc3)cc2)CC1 | 10 nM | 91 | 6 | 12 | 
CC(C)(Cc1ccc(NS(=O)(=O)Nc2ccccc2)cc1)NC[C@H](O)c1cccnc1 | 7 nM | 107 | 8 | 29 | 
O=S(=O)(Nc1ccc(CCNC[C@H](O)c2cccnc2)cc1)NC1CCCCC1 | 1460 nM | 71 | 0 | 0 | 
CC(C)(Cc1ccc(NS(=O)(=O)N2CCC(c3ccccc3)CC2)cc1)NC[C@H](O)c1cccnc1 | 47 nM | 106 | 9 | 20 | 
C[C@@H]1C[C@H](C)CN(S(=O)(=O)Nc2ccc(CC(C)(C)NC[C@H](O)c3cccnc3)cc2)C1 | 4 nM | 89 | 11 | 7 | 
CN1CCN(S(=O)(=O)Nc2ccc(CC(C)(C)NC[C@H](O)c3cccnc3)cc2)CC1 | 41 nM | 79 | 4 | 7 | 
O=S(=O)(Nc1ccc(CCNC[C@H](O)c2cccnc2)cc1)c1ccc(-c2nc(-c3ccc(C(F)(F)F)cc3)cs2)cc1 |  | 92 | 1 | 1 | 
O=S(=O)(Nc1ccc(CCNC[C@H](O)c2cccnc2)cc1)N1CCC(c2ccccc2)CC1 | 23 nM | 100 | 2 | 2 | 
CN(C)S(=O)(=O)Nc1ccc(CCNC[C@H](O)c2cccnc2)cc1 | 265 nM | 84 | 11 | 6 | 
O=S(=O)(Nc1ccc(CCNC[C@H](O)c2cccc(Cl)c2)cc1)NC1CCCCC1 | 464 nM | 63 | 7 |  | 10
CC1CCN(S(=O)(=O)Nc2ccc(OCCNC[C@H](O)c3cccnc3)cc2)CC1 | 1360 nM | 98 | 7 | 5 | 
CN(C)S(=O)(=O)Nc1ccc(OCCNC[C@H](O)c2cccnc2)cc1 | 943 nM | 96 | 4 | 3 | 
CN(C)S(=O)(=O)Nc1ccc(CCNC[C@H](O)c2cccc(Cl)c2)cc1 | 299 nM | 75 | 6 | 5 | 
O=S(=O)(Nc1ccc(CCNC[C@H](O)c2cccnc2)cc1)N1CCCCC1 | 99 nM | 77 | 6 | 7 | 
CC1CCN(S(=O)(=O)Nc2ccc(CCNC[C@H](O)c3cccnc3)cc2)CC1 | 36 nM | 80 | 8 | 6 | 
CC(C)(Cc1ccc(NS(=O)(=O)N2CCN(Cc3ccccc3)CC2)cc1)NC[C@H](O)c1cccnc1 | 18 nM | 105 | 13 | 46 | 
CN(C)S(=O)(=O)Nc1ccc(CC(C)(C)NC[C@H](O)c2cccnc2)cc1 | 38 nM | 98 | 7 | 10 | 
CC(C)(Cc1ccc(NS(=O)(=O)NC2CCCCC2)cc1)NC[C@H](O)c1cccnc1 | 25 nM | 110 | 19 | 17 | 
COCCNS(=O)(=O)Nc1ccc(CC(C)(C)NC[C@H](O)c2cccnc2)cc1 | 165 nM | 103 | 24 | 28 | 
